Measured values as given in publication PMC10103840 (Frontiers in Pharmacology, 2023).
Values joined by “and” are separate entries in the source; they are usually repeats but may differ in a detail not shown here. Equal values may be shown once.

Tests used:
BeWo b30 cells = experiment: in vitro; conditions: human, 60 min, 5 μM
Protocol: (§1) BeWo b30 choriocarcinoma cells were obtained from Dr. Tina Buerki-Thurnherr (Empa, St. Gallen, Switzerland), with permission from Dr. Alan L. Schwartz (Washington University School of Medicine, St. Louis MO, USA), and were cultivated in F-12 K Nut Mix supplemented with 10% heat inactivated FBS, antibiotics (100 U/mL penicillin, 100 µg/mL […]), and 2 mM L-glutamine (all from Gibco). The cells were cultivated in a humidified incubator at 37°C and 5% CO2 atmosphere.
(§2) BeWo b30 cells were cultured on Transwell® polycarbonate membrane inserts (24-well format; 0.4 μm pore size, 0.33 cm^2 cell growth area, 200 μL apical volume, 1′000 μL basolateral volume; Corning, Sigma-Aldrich) at a density of 60′000 cells/well. These inserts were then cultivated in a cellZscope (nanoAnalytics) at 37°C/5% CO2. Cell culture medium was replaced every 2 days up to 11 days to find the best possible conditions.
(§3) BeWo b30 cells were cultured in transparent 24-well plates under the same conditions as mentioned above and transferred to the cellZscope® at day 8 to record TER and Ccl values. After 24 h (day 9) and when a TER of 30–60 Ωcm^2 was reached and Ccl was between 0.5 and 5.0 μF/cm^2, the permeability assay was initiated by adding valerenic acid (5 μM; in HBSS with 4% BSA) to the apical compartment, while the basolateral compartment contained 1′000 μL of HBSS only. […] Samples (150 μL apical, 800 μL basolateral) were collected at each time point (0, 15, 30, 60 min; one insert per time point). After 60 min, a part of the inserts was transferred back to the cellZscope® to monitor TER and Ccl values during another 24 h. The cells grown on the other part of the inserts were quickly washed with 200 μL of cold HBSS and then lysed with 700 μL acetonitrile (100 μL apical, 600 μL basolateral) for 40 min on an orbital shaker (450 rpm, room temperature) to determine the test substance cell contents.
(§4) Apparent permeability coefficients (Papp) were calculated according to the following Eq. 1: Papp cm/s=∆Q/∆t/ACA0 (1) where ΔQ/Δt is the rate of amount transported to the receiver compartment, A is the membrane surface area (0.33 cm^2), and C A0 is the initial concentration in the apical compartment.
(§5) The clearance values were calculated according to the following Eq. 2 ([Neuhaus et al., 2008]): Clearance μL=CBnVB/CA−VB/VA∙∑CBn−1 (2) where C Bn and V B are the concentration and volume in the basolateral compartment at a specific timepoint (n), respectively; C A and VA are the concentration and volume in the apical compartment, respectively, and C Bn-1 is the total amount of substance found in the basolateral compartment up to the previous timepoint (n-1).
(§6) Recovery (mass balance) of each compound was calculated according to the following Eq. 3: Recovery %=CAfVA+CBfVB+CCfVC/CA0VA∙100 (3) where C Af , C Bf and C Cf are the final compound concentrations in apical, basolateral, and cellular compartments, respectively; C A0 is the initial concentration in the apical compartment, and V A , V B and V C are the volumes in the respective compartments.
(§7) For valerenic acid, 150 µL of the IS in MeOH were added to 50 µL of sample, and the mixture centrifuged for 20 min at 13′200 rpm/16′100 rcf at 10°C (Centrifuge 5415R, Eppendorf). An aliquot (50 µL) of the supernatant was collected and transferred into HPLC vials. Vials were centrifuged for additional 20 min prior to U(H)PLC-MS/MS analysis in full loop mode (2 µL).

in vitro [1] = conditions: human
Protocol: as §1, §2, §3, §4, §5, §6, §7

[2] = 60 min, 5 μM
[3] = System adherence test (empty perfusion chamber, maternal circuit only); assay type: in vitro ADME; conditions: % of initial concentration, 5 μM in PM, no placental tissue, 240 min, n = 3
Protocol: The dissolution and adherence of the compounds to the perfusion equipment and to the tubing system was assessed before starting perfusions with human placentae. […] The compounds were directly dissolved in PM at a final concentration of 5 μM (100 mL reservoir) and individually tested in three independent experiments (n = 3).

placental tissue [4] = tested on: placental tissue
Protocol: The stability of volumes in each reservoir ensured the integrity of the circuits and served for the detection of fetal-maternal (FM) leaks (≤4 mL/h). Throughout the perfusion additional quality control measures included a physiological pH-range (7.2 ± 0.1) and a controlled fetal perfusion pressure (≤ 70 mmHg). Samples were taken at defined timepoints over a 240 min period, immediately centrifuged, and stored in glass micro-inserts (VWR) at −80°C for bioanalytical analysis. A blood gas analysis (pH, pO2, pCO2, glucose, lactate; ABL800 FLEX) of fetal and maternal samples was performed to ensure viability and metabolic activity of placental tissue during perfusion. The production of the placental hormones beta-human chorionic gonadotropin (β-hCG) and leptin was monitored by standard ELISA to assess tissue functionality ex vivo [see ([Spiess et al., 2022a]) and references therein]. For β-hCG, flat-bottom microplates were coated with rabbit polyclonal anti-hCG antibody (Agilent Dako) at a 1:1′000 dilution and the mouse monoclonal anti-hCG (abcam; 1:5′000) served as secondary antibody. The peptide hormone hCG (Lucerna-Chem) was used as reference standard; standard final concentrations of between 100 mU/mL and 2.5 mU/mL were prepared by serial dilution in seven steps and used in each plate. The goat anti-mouse-IgG-horseradish peroxidase conjugate (abcam) antibody was used at a 1:5′000 dilution. The substrate consisted of O-phenylenediamine dihydrochloride. […] For leptin, microtiter plates were coated with mouse monoclonal anti-human leptin/OB (R&D Systems; 1:250). The second antibody was biotinylated monoclonal mouse anti-human leptin/OB (R&D Systems), used at a dilution of 1:1′000. The standard was recombinant human leptin (R&D Systems); standard final concentrations of between 2′000 pg/mL and 15.6 pg/mL were prepared by serial 1:2 dilution in seven steps and used in each plate. […] The conjugate streptavidin-horseradish peroxidase (Southern Biotechnology Associates, 1:4′000) was added and the plate incubated for 60 min. For the development, ready-to-use tetramethylbenzidine substrate solution (Thermo Fischer) was used.
Concentrations in the placental perfusion profiles (Figure 2) and system adherence tests (Figure 4) were expressed as a percentage (%) of the maternal concentration at the beginning of the perfusion, whereby the maternal concentration, measured in the maternal reservoir, was adjusted to the total volume of the full maternal circuit (maternal reservoir and dead volume of the system). The FM concentration ratio (FM ratio; Figure 3) was calculated for each timepoint and plotted against the perfusion time (min). The final recovery (%) is the sum of the amounts of study compound present in both perfusates at the end of a perfusion, and the sample removed during the experiment. Glucose consumption and lactate production are presented as the sum of changes (from the beginning to the end of perfusion) in total content (μmol) in both circuits, normalized by total perfusion time (min) and weight (g) of perfused cotyledon. […]
Multiple group comparisons were performed for the glucose consumption, lactate production, β-hCG and leptin production using the non-parametric Mann–Whitney U with GraphPad Prism (version 9.3.1 for macOS; GraphPad Software). […] Data are expressed as mean ± SD of three to four independent experiments.

in vitro [5] = conditions: human, pH 7.2
[6] = human volunteers, ref Jackson et al., 2014; cited from earlier work
BeWo cells = conditions: ref Spiess et al., 2022b; cited from earlier work
[7] = Transwell control experiments across cell-free inserts; conditions: data not shown
[8] = Stability assay in PBS, perfusion medium and placental homogenates; assay type: in vitro ADME, human
Protocol: In short, after spiking the various matrices with the study compounds, samples were either processed immediately for U(H)PLC-MS/MS analysis (C0), or kept at 4°C/37°C on an orbital shaker (600 rpm) for 360 min before processing for U(H)PLC-MS/MS analysis. Samples were processed via solid phase extraction or protein precipitation prior to analysis.

placental tissue [9] = experiment: Histopathological evaluation of perfused placentae; design: species or system human
Protocol: Immediately after perfusion the placentae were fixed in 4% paraformaldehyde for at least 24 h. Tissue samples from representative placental tissue sections, each from perfused, non-perfused, and transitional area were prepared to perform a pathological examination. For this purpose, the tissue was embedded in paraffin, cut (∅ 2-3 µm), and stained (standard hematoxylin-eosin stain, Braun-Brenn modified Gram stain) according to the standards of routine histopathological diagnosis of the Department of Pathology and Molecular Pathology (University Hospital of Zurich). […] The blood void and width of the intervillous space and fetal blood vessels in the chorionic villi provided information about the quality of perfusion, and particular attention was paid to the presence of intravascular thrombi. General signs of degeneration, such as vacuolization of the cytotrophoblast, villous vascular endothelium viability, and formation of hydropic villous changes compared with non-perfused tissue indicated whether tissue damage might have occurred during perfusion. Microscopic effects and placental tissue damage in the perfused area were expressed in relative amounts (%) to the non-perfused tissue.

[10] = non-perfused area of same placenta

Cc1cc(=O)n(-c2ccccc2)n1C [Antipyrine, antipyrine, reference compound]
Clearance across BeWo b30 cell layer (BeWo b30 cells): 35.5 µL | Papp at 60 min, 5 μM (in vitro [1]): 28 ×10⁻⁶ cm/s | recovery at 60 min, 5 μM (in vitro [1]): 81.9% | Clearance across cell-free insert [2]: 33.5 µL | Compound lost / adhering to the perfusion equipment [3]: −2.2% and −2.2% ± 7.0% | Lactate production (placental tissue [4]): 0.27 µmol/g/min | Leptin production (placental tissue [4]): 2.26 ng/min | Total glucose consumption (placental tissue [4]): 0.39 µmol/g/min | β-hCG production (placental tissue [4]): 1.44 U/min | recovery at 240 min, 5 μM (in vitro [5]): 79.2% | Sampling (% found) (human placental barrier; human, 5 μM, pH 7.2): 21.8 ± 1.3% | Time to equilibrium between fetal and maternal compartment (human placental barrier; human, 5 μM, pH 7.2): 120 min | Time to equilibrium between fetal and maternal concentrations (FM ratio) (human placental barrier; human, 5 μM, pH 7.2): 90 min | FM ratio at 90 min (human placental barrier; human, 90 min, 5 μM, pH 7.2): 1.03 | FM ratio at 120 min (human placental barrier; human, 120 min, 5 μM, pH 7.2): 0.98 | FM ratio at 180 min (human placental barrier; human, 180 min, 5 μM, pH 7.2): 1.05 | FM ratio at 240 min (human placental barrier; human, 240 min, 5 μM, pH 7.2): 0.92

Cc1cc(O)c2c(=O)c3c(O)cc(O)c4c5c(O)cc(O)c6c(=O)c7c(O)cc(C)c8c1c2c(c34)c(c78)c65 [Hypericin, hypericin]
Plasma concentration [6]: 2.2 ng/mL and 4.36 nM | Compound lost / adhering to the perfusion equipment [3]: 3.8% and 3.8% ± 13.1% | Effect on β-hCG and leptin production (in words) (placental tissue [4]; 5 μM, 240 min perfusion, vs antipyrine control perfusions): neither hyperforin, hypericin, nor valerenic acid inhibited their production in a statistically significant manner | Concentration lowering the viability of placental cells (BeWo cells): 1000 nM | Concentration with genotoxic effects (BeWo cells): 10000 nM | Concentration with increased apoptosis / apoptotic effects (BeWo cells): 1000 nM | recovery at 240 min, 5 μM (in vitro [5]): 54% | Passage across cell-free inserts (in words) [7]: did not cross the cell-free inserts to a sufficient extent | Stability in PBS compared to PM (in words) ([8]; 360 min, 4°C and 37°C): less stable | Remaining in placental homogenate, Donor 1 ([8]; human, tissue homogenate, 6 h): 101.0% | Remaining in placental homogenate, Donor 2 ([8]; human, tissue homogenate, 6 h): 82.7% | Remaining in placental homogenate, Donor 3 ([8]; human, tissue homogenate, 6 h): 93.7% | Transplacental transfer (in words) (human placental barrier; 240 min perfusion, 5 μM maternal): did not cross the human placental barrier | Concentration in the maternal compartment (human placental barrier; human, 240 min, 5 μM, pH 7.2): approximately 46 % of initial concentration | M perfusate (% found) (human placental barrier; maternal perfusate after 240 min, % of amount in maternal sample at beginning): 36.7% | Global placental pathology: Else (placental tissue [9]): CCB and N | Extravasations into villous stroma (in words) (placental tissue [9]; after perfusion): no extravasations into villous stroma | Ruptures of villous vessels (in words) (placental tissue [9]; after perfusion): no ruptures of villous vessels | Hydropic changes in non-perfused (placental tissue [9]; [10]): 5% and 0% | Intervillous spaces without blood in non-perfused (placental tissue [9]; [10]): 40% and 80% | Vacuolated trophoblast in villi: in non-perfused too? (placental tissue [9]; [10]): 0% | Thrombi in vessels of stem villi (in words) (placental tissue [9]; perfused and non-perfused): no thrombi detectable | Intervillous spaces without blood (placental tissue [9]; perfused area): 90% and 95% | Emptiness of villous vessels (placental tissue [9]; perfused area, individual experiments): 90% and 80% and 85%
